Among the test systems are RPMI-8226 leukemia; OVCAR-4 ovarian; SK-MEL-2 melanoma; KM12 colon; SR leukemia; SW-620 colon; UACC-257 melanoma; CCRF-CEM leukemia; MALME-3M melanoma; SNB-75 CNS.
What all share (test): DTP human tumour cell line panel, 48 h

One may read the TGI as the concentration giving total growth inhibition. A low value points to greater sensitivity of the cells. The term GI50 denotes the concentration giving 50% growth inhibition.

Each structure is given as a SMILES string. “And” between values parts separate entries of the source, which are not always exact repeats. Identical values can stand only once.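 Tested at 5 concentrations; 48 h exposure; 96-well plates; endpoints linearly interpolated, else capped at highest concentration. At the GI50, growth is halved. TGI denotes the concentration required for complete inhibition of growth.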

In the case of `N#Cc1nnc2c3c(-c4ccc(Cl)cc4)c(C#N)c(=O)[nH]c3nn2c1N`, the TGI came to 51.1 µM with RPMI-8226 leukemia; 51 µM with OVCAR-4 ovarian; 26.9 µM with SK-MEL-2 melanoma; 28.5 µM in the assay on KM12 colon; 16.7 µM in the assay on SR leukemia; 32 µM in the assay on SW-620 colon. The TGI in the assay on UACC-257 melanoma was 38.5 µM; with CCRF-CEM leukemia, over 100 µM; with MALME-3M melanoma, 31.6 µM.

Regarding `OCc1ccccc1OC1OC(CO)C(O)C(O)C1O` (centres undefined), the TGI in the assay with RPMI-8226 leukemia, with OVCAR-4 ovarian, in the assay on SK-MEL-2 melanoma, with SNB-75 CNS, in the assay on KM12 colon and in the assay on SW-620 colon was over 100 µM in each case. Further, the total growth inhibition concentration (TGI) in the assay with UACC-257 melanoma, with CCRF-CEM leukemia and in the assay on MALME-3M melanoma was over 100 µM in each case.

As for `COc1ccccc1OC/C(N=Cc1ccncc1)=N/NC(=O)c1ccncc1`, the TGI in the assay on RPMI-8226 leukemia, in the assay on OVCAR-4 ovarian, with SK-MEL-2 melanoma, with KM12 colon, in the assay on SW-620 colon and in the assay with UACC-257 melanoma was over 100 µM throughout. Also, the TGI in the assay on CCRF-CEM leukemia and in the assay with MALME-3M melanoma was over 100 µM throughout.

As for `NC(CO)c1ccccc1` (centres undefined), the TGI with OVCAR-4 ovarian, in the assay on SK-MEL-2 melanoma, with SNB-75 CNS, in the assay with KM12 colon, in the assay on SR leukemia and with SW-620 colon was over 100 µM each time. Further, the TGI with UACC-257 melanoma, in the assay with CCRF-CEM leukemia and in the assay on MALME-3M melanoma was over 100 µM in each case.

With `C=C1C(=O)C[C@@]23CCC[C@@]12CC(O)C3` (some centres undefined), the TGI in the assay on RPMI-8226 leukemia was 61.3 µM; in the assay on OVCAR-4 ovarian it was 36.2 µM; in the assay on SK-MEL-2 melanoma, 73.2 µM; with SNB-75 CNS it was 48.7 µM; in the assay on KM12 colon, 51.3 µM; in the assay with SW-620 colon, 37.2 µM. For the same compound, the total growth inhibition concentration (TGI) worked out at 52.3 µM with UACC-257 melanoma, 56.2 µM in the assay with CCRF-CEM leukemia and 18.3 µM with MALME-3M melanoma.

As for `c1ccc(C/C(=N\Nc2nc3ccccc3o2)c2ccccn2)cc1`, the TGI was 0.957 µM with RPMI-8226 leukemia; 20.7 µM in the assay on SK-MEL-2 melanoma; 6.67 µM in the assay with KM12 colon; 2.05 µM in the assay on SR leukemia; 4.79 µM in the assay with SW-620 colon; 3.85 µM in the assay with UACC-257 melanoma. Further, the figures for the TGI in the assay on CCRF-CEM leukemia and in the assay with MALME-3M melanoma were 0.0473 µM and 1.82 µM, respectively.

Regarding `C/C(=N\O)c1ccc(Nc2c3ccccc3nc3occc23)cc1`, the TGI in the assay with RPMI-8226 leukemia was 3.26 µM; with OVCAR-4 ovarian, over 12.2 µM; in the assay with SK-MEL-2 melanoma, 3.5 µM; with SNB-75 CNS, 3.78 µM; in the assay with KM12 colon, 27.4 µM; with SW-620 colon, over 50 µM. Further, the results for the TGI with UACC-257 melanoma, with CCRF-CEM leukemia and in the assay on MALME-3M melanoma were over 44.6 µM, 1.89 µM and over 50 µM, respectively.

For the compound `CSc1s[s+]c(SC)c1-c1ccccc1`, the TGI was 56.7 µM in the assay with RPMI-8226 leukemia; 17.9 µM in the assay on OVCAR-4 ovarian; 33.8 µM in the assay on KM12 colon; 34.9 µM with SW-620 colon; 27.8 µM in the assay on UACC-257 melanoma; 81.4 µM in the assay with CCRF-CEM leukemia. Moreover, the concentration for total growth inhibition (TGI) in the assay on MALME-3M melanoma amounted to 24.6 µM.

In the case of `CN(C)CCNc1nc2ccccc2c2c1C(=O)c1ccccc1-2`, the TGI is 0.599 µM in the assay on RPMI-8226 leukemia; 1.41 µM in the assay with OVCAR-4 ovarian; 1.55 µM with SK-MEL-2 melanoma; 1.68 µM in the assay with SNB-75 CNS; 2.11 µM in the assay on KM12 colon; 4.9 µM in the assay with SW-620 colon. Moreover, the concentration for total growth inhibition (TGI) in the assay on UACC-257 melanoma stood at 3.7 µM; in the assay with CCRF-CEM leukemia, 4.05 µM; in the assay on MALME-3M melanoma, 1.12 µM.

With `O=C1O/C(=C\c2ccc(O)cc2)C(c2ccc(O)c(Cl)c2)=C1Br`, the TGI in the assay with RPMI-8226 leukemia was determined as 30.7 µM; with OVCAR-4 ovarian, 38.4 µM; with SK-MEL-2 melanoma, 28.5 µM; in the assay with KM12 colon it was 30.3 µM; in the assay on SR leukemia, 21 µM; in the assay with SW-620 colon it was 37.9 µM. The concentration for total growth inhibition (TGI) in the assay with UACC-257 melanoma is 26.8 µM; in the assay with CCRF-CEM leukemia, 32.8 µM; with MALME-3M melanoma it was 29.5 µM.

On to `CSc1nc2c(ncn2C2OCC(O)C(O)C2O)c(=O)[nH]1` (centres undefined), for which the TGI in the assay on RPMI-8226 leukemia, with OVCAR-4 ovarian, in the assay on SK-MEL-2 melanoma, in the assay with SNB-75 CNS, in the assay with KM12 colon and in the assay on SW-620 colon was over 100 µM throughout. Also, the TGI with UACC-257 melanoma, in the assay on CCRF-CEM leukemia and in the assay with MALME-3M melanoma was over 100 µM each time.

For the compound `COC1(OC)N=C(N)C2(C#N)/C(=N/N(C)C)CC(C)C12C#N` (centres undefined), the concentration for total growth inhibition (TGI) with SK-MEL-2 melanoma, in the assay on SNB-75 CNS, in the assay with KM12 colon, in the assay on SR leukemia, in the assay on SW-620 colon and in the assay with UACC-257 melanoma was over 100 µM in each case. Further, the TGI in the assay with CCRF-CEM leukemia and in the assay with MALME-3M melanoma was over 100 µM each time.

As for `CSC1(SC)CCCCCCCCCCC1`, the TGI in the assay on RPMI-8226 leukemia, in the assay with OVCAR-4 ovarian, in the assay with SK-MEL-2 melanoma, with KM12 colon, with SR leukemia and with SW-620 colon was over 100 µM each time. Further, the TGI was found to be 74 µM with UACC-257 melanoma, 48.6 µM in the assay with CCRF-CEM leukemia and 70.9 µM with MALME-3M melanoma.

As to `CC(=O)c1c(O)c(C)c(O)c2c1OC1=CC(=O)C(C(C)=O)C(=O)C12C` (centres undefined), the GI50 in the assay with RPMI-8226 leukemia was 3.88 µM and 9.02 µM; in the assay on OVCAR-4 ovarian, 5.28 µM and 9.79 µM; in the assay with SK-MEL-2 melanoma, 4.42 µM and 25.4 µM; in the assay on SNB-75 CNS, 5.97 µM and 22.5 µM; with KM12 colon, 6.21 µM and 19 µM; with SW-620 colon it was 6.44 µM and 27.5 µM. Further, the GI50 in the assay with UACC-257 melanoma was 6.02 µM and 30.4 µM; in the assay with CCRF-CEM leukemia, 4.26 µM and 20.7 µM. For the same compound, the TGI was 24.2 µM and 49.7 µM in the assay with RPMI-8226 leukemia; 61.3 µM and 35.1 µM with OVCAR-4 ovarian; 14.5 µM and 50.6 µM with SK-MEL-2 melanoma; 21.2 µM and 49 µM with SNB-75 CNS; 32.2 µM and 63.5 µM with KM12 colon; 41.3 µM and 86 µM in the assay on SW-620 colon. In addition, the TGI in the assay with UACC-257 melanoma is 22.7 µM and 64.5 µM; with CCRF-CEM leukemia it was 26.2 µM and 72.6 µM; in the assay with MALME-3M melanoma it was 28.8 µM and 42.6 µM.

The values are drawn from PubChem BioAssay (NCI).
